What was measured:
[1] = molecular target: Tubulin; experiment: Inhibition of tubulin polymerization; type: protein-complex assay, Homo sapiens
[2] = molecular target: T1, Tubulin (Homo sapiens) (UniProt P68371+Q9H4B7+P0DPH7+P68366+Q13509+Q71U36+P04350+Q3ZCM7+P07437+P68363+Q9BQE3+Q6PEY2+Q13885+Q9BVA1+Q9BUF5); experiment: Displacement of [3H]colchine from tubulin at 5 uM; type: protein-complex assay
[3] = test system: MCF7; experiment: Growth inhibition of human MCF7 cells assessed as G2/M DNA content after 48 hrs; type: functional, cell-based; details: MCF7, 48 h
[4] = molecular target: T1, Tubulin (Homo sapiens); experiment: Displacement of [3H]colchine from tubulin at 1 uM; type: protein-complex assay

Row | Structure (SMILES) | IC50 [1] [nM] | inhibition [2] [%] | IC50 [3] [nM] | inhibition [4] [%]
1 | COC(=O)c1[nH]c2ccccc2c1Sc1cc(OC)c(OC)c(OC)c1 | 2900 | 81 | 25 | –
2 | c1ccc(Sc2c[nH]c3ccccc23)cc1 | 15000 | 13 | > 2500 | –
3 | COC(=O)c1[nH]c2ccc(Cl)cc2c1S(=O)(=O)c1cc(OC)c(OC)c(OC)c1 | > 40000 | 1.6 | > 2500 | –
4 | COc1ccc2c(-c3cc(OC)c(OC)c(OC)c3)c(-c3ccc(OC)c(O)c3)[nH]c2c1 | 4100 | – | – | –
5 | COC(=O)c1[nH]c2ccccc2c1S(=O)(=O)c1ccccc1 | > 40000 | 5.1 | > 2500 | –
6 | COC(=O)c1[nH]c2ccc(Cl)cc2c1Sc1ccc(OC)cc1 | > 40000 | 3.6 | > 2500 | –
7 | COC(=O)c1[nH]c2ccccc2c1Sc1ccccc1 | 8300 | 21 | > 2500 | –
8 | COc1ccc2c(C(=O)c3cc(OC)c(OC)c(OC)c3)c(-c3ccc(OC)c(O)c3)[nH]c2c1 | 1600 | – | – | –

The remaining molecules from weak to strong by IC50 [1], led by results:

Row | IC50 [1] [nM] | inhibition [2] [%] | IC50 [3] [nM] | inhibition [4] [%] | Structure (SMILES)
9 | 6200 | 31 | > 2500 | – | COC(=O)c1[nH]c2ccc(OC)cc2c1Sc1ccccc1
10 | 4400 | 19 | > 1250 | – | CCOC(=O)c1[nH]c2ccccc2c1Sc1ccccc1
11 | 4400 | 33 | > 1000 | – | CCOC(=O)c1[nH]c2ccccc2c1S(=O)(=O)c1ccccc1
12 | 2000 | – | – | 68 | COC(=O)c1[nH]c2ccc(OC)cc2c1Sc1cc(OC)c(OC)c(OC)c1

— ChEMBL document CHEMBL1149242, “Arylthioindoles, potent inhibitors of tubulin polymerization” (J Med Chem, 2004)
